Consider 25 compounds from US20090029992A1, “SUBSTITUTED PYRAZOLE COMPOUNDS” (priority 2007, published 2009).

Some results are limits rather than exact numbers.

Usually IC50 stands for the point on the concentration scale where inhibition reaches its midpoint. The GI50 is the concentration that inhibits growth by half.

Experiment [1] addresses T1, N-terminal His6-tagged recombinant human KDR, residues 790-end (Homo sapiens, UniProt P35968).
T1 construct: recombinant human KDR, residues 790-end; His6 (N); purchased Upstate USA Inc, 706 Forest Street, Charlottesville, Va
Nature of the experiment: KDR kinase inhibition assay (33P-ATP filter assay). The format is biochemical. In short, it runs like this:
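His6-tagged human KDR (residues 790-end, 5-10 mU) with 0.33 mg/mL myelin basic protein in 8 mM MOPS pH 7.0, 0.2 mM EDTA, 10 mM magnesium acetate and [γ-33P]ATP; 40 min at room temperature. Stopped with phosphoric acid, filter-bound 33P counted; inhibition relative to no-inhibitor controls.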

Experiment [2] addresses T2, N-terminal His-tagged human Src (Homo sapiens, UniProt P12931).
T2 construct: His (N); purchased Upstate USA Inc, 706 Forest Street, Charlottesville, Va
Nature of the experiment: Src kinase inhibition assay (33P-ATP filter assay). It is filed as biochemical.

The test system of the next experiment is HCT116 cells. Description: Whole cell cytotoxicity assay, Sulforhodamine B. The conditions noted are these: Homo sapiens, HCT-116, HCT116, 96 hours incubation, SRB; for IC50: read-out: IC50 values in this assay (HCT116 cell growth); for GI50: read-out: GI50 HCT116 cell growth. It is filed as cell-based. In short, it runs like this:
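HCT116 cells (500/well) in DMEM/10% FBS/2 mM glutamine were preincubated 24 h, then exposed to compound for 96 h at 37 °C, 5% CO2, in duplicate. Cells were fixed with TCA and stained with sulforhodamine B (A570). GI50, TGI and LC50 were derived relative to a time-zero plate and an untreated control.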

Setting [3] is: group with IC50 greater than 100 nM.

T2 sequence (P12931 whole entry): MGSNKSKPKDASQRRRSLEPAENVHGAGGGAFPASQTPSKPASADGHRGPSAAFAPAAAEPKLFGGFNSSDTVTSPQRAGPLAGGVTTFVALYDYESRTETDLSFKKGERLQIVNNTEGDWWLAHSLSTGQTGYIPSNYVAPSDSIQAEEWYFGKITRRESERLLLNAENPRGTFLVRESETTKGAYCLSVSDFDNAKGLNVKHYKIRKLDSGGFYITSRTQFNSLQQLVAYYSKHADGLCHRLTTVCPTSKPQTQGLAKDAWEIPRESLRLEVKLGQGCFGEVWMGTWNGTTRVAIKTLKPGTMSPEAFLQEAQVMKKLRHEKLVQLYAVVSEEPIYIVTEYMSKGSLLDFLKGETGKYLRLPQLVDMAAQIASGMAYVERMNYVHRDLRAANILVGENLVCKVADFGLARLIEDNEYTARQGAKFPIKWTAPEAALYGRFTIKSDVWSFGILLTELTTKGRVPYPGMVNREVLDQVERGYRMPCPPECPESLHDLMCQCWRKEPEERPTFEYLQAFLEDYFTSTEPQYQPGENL
T1 sequence (P35968 790-1356 limits assumed): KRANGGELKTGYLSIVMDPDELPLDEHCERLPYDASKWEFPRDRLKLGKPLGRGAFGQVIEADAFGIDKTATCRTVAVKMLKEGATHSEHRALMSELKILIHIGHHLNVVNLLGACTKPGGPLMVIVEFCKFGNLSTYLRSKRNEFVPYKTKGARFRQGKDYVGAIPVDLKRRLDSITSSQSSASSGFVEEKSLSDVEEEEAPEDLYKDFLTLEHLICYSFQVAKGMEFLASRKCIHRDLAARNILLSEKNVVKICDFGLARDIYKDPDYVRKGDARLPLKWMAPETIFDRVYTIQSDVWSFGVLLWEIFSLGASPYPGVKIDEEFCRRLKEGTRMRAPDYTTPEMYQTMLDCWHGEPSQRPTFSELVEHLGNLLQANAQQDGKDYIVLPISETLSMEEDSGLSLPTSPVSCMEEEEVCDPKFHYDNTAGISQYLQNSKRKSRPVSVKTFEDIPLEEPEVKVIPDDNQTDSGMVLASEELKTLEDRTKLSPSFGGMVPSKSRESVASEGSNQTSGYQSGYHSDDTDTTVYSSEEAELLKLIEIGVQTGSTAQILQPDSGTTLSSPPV

`Cc1cc(Nc2cc(N3CCC(O)CC3)nc(-c3cc4ccccc4n3C)n2)n[nH]1` [Compound 3, 1-(6-(5-methyl-1H-pyrazol-3-ylamino)-2-(1-methyl-1H-indol-2-yl)pyrimidin-4-yl)piperidin-4-ol]: the IC50 in experiment [1] (40 minutes at room temperature) is ≤ 100 nM; in experiment [2] (40 minutes at room temperature) it was ≤ 100 nM; in the experiment with HCT116 cells, 1 to 10 µM.

`Cc1cc(C)cc(-c2nc(Nc3cc(C)[nH]n3)cc(N3CCN(C)CC3)n2)c1` [Example 169, 2-(3,5-dimethylphenyl)-N-(5-methyl-1H-pyrazol-3-yl)-6-(4-methylpiperazin-1-yl)pyrimidin-4-amine]: the IC50 is ≤ 100 nM in experiment [1] (40 minutes at room temperature) and ≤ 1000 nM in experiment [2] (setting [3]). The GI50 in the experiment on HCT116 cells was ≤ 1000 nM.

For `Cc1cc(Nc2cc(NC3CCOCC3)nc(-c3cc4cc(NS(=O)(=O)C5CC5)ccc4o3)n2)n[nH]1` [Example 156, N-(2-(4-(5-methyl-1H-pyrazol-3-ylamino)-6-(tetrahydro-2H-pyran-4-ylamino)pyrimidin-2-yl)benzofuran-5-yl)cyclopropanesulfonamide], the IC50 in experiment [1] (setting [3]) was ≤ 1000 nM; in experiment [2] (40 minutes at room temperature), ≤ 100 nM; with HCT116 cells it was 1 to 10 µM.

For `Cc1cc(Nc2cc(N3CCN(C)CC3)nc(-c3cccc(F)c3F)n2)n[nH]1` [Example 200], the IC50 in experiment [1] (40 minutes at room temperature) and in experiment [2] (40 minutes at room temperature) was ≤ 100 nM throughout. Further, in the experiment with HCT116 cells, the GI50 was ≤ 1000 nM.

For `Cc1cc(Nc2cc(NC3CCOCC3)nc(-c3ccccc3)n2)n[nH]1` [Compound 12, N^4-(tetrahydro-2H-pyran-4-yl)-N^6-(5-methyl-1H-pyrazol-3-yl)-2-phenylpyrimidine-4,6-diamine], the half-maximal inhibitory concentration (IC50) in experiment [1] (40 minutes at room temperature) and in experiment [2] (40 minutes at room temperature) was ≤ 100 nM in each case. Further, in the experiment with HCT116 cells, the GI50 is ≤ 1000 nM.

Turning to `Cc1cc(Nc2cc(NC3CCOCC3)nc(-c3cc(F)ccc3F)n2)n[nH]1` [Example 185, 2-(2,5-difluorophenyl)-N^4-(5-methyl-1H-pyrazol-3-yl)-N^6-(tetrahydro-2H-pyran-4-yl)pyrimidine-4,6-diamine], the figures for the IC50 (in experiment [1] (40 minutes at room temperature); in experiment [2] (setting [3]); in the experiment with HCT116 cells) were ≤ 100 nM, ≤ 1000 nM and 1 to 10 µM, respectively.

Consider `Cc1cc(Nc2cc(N3CCN(C)CC3)nc(-c3ccc(F)c(F)c3)n2)n[nH]1` [Example 168, 2-(3,4-difluorophenyl)-N-(5-methyl-1H-pyrazol-3-yl)-6-(4-methylpiperazin-1-yl)pyrimidin-4-amine], for which the IC50 in experiment [1] (setting [3]) was ≤ 1000 nM; in experiment [2] (40 minutes at room temperature), ≤ 100 nM. The GI50 in the experiment with HCT116 cells is ≤ 1000 nM.

On to `Cc1cc(Nc2cc(N3CCN(C)CC3)nc(-c3cccnc3)n2)n[nH]1` [Compound 89, N-(5-methyl-1H-pyrazol-3-yl)-6-(4-methylpiperazin-1-yl)-2-(pyridin-3-yl)pyrimidin-4-amine], for which the IC50 in experiment [1] (setting [3]) was ≤ 1000 nM; in experiment [2] (40 minutes at room temperature), ≤ 100 nM; in the experiment with HCT116 cells, 1 to 10 µM.

For the compound `Cc1cc(Nc2cc(N3CCN(C)CC3)nc(-c3cccc4ccoc34)n2)n[nH]1` [Example 203, 2-(benzofuran-7-yl)-N-(5-methyl-1H-pyrazol-3-yl)-6-(4-methylpiperazin-1-yl)pyrimidin-4-amine], the values for the IC50 (in experiment [1] (40 minutes at room temperature); in experiment [2] (40 minutes at room temperature); with HCT116 cells) were ≤ 100 nM, ≤ 100 nM and 1 to 10 µM, respectively.

For `Cc1cc(Nc2cc(N3CCN(C)CC3)nc(-c3ccc(N(C)C)cc3)n2)n[nH]1` [Compound 85, 2-(4-(dimethylamino)prenyl)-N-(b-methyl-1H-pyrazol-3-yl)-6-(4-methylpiperazin-1-yl)pyrimidin-4-amine], the IC50 in experiment [1] (40 minutes at room temperature) and in experiment [2] (40 minutes at room temperature) was ≤ 100 nM each time. Further, the GI50 in the experiment on HCT116 cells is ≤ 1000 nM.

As to `Cc1cc(Nc2cc(N3CCN(C)CC3)nc(-c3cccc(C)c3C)n2)n[nH]1` [Example 179, 2-(2,3-dimethylphenyl)-N-(5-methyl-1H-pyrazol-3-yl)-6-(4-methylpiperazin-1-yl)pyrimidin-4-amine], the IC50 in experiment [1] (40 minutes at room temperature) was ≤ 100 nM; in experiment [2] (setting [3]) it was ≤ 1000 nM. The concentration for 50% growth inhibition (GI50) with HCT116 cells was ≤ 1000 nM.

Turning to `COc1ccc(-c2nc(Nc3cc(C)[nH]n3)cc(N(C)CCN(C)C)n2)cc1` [Compound 54, N^4-(2-(dimethylamino)ethyl)-2-(4-methoxyphenyl)-N^4-methyl-N^6-(5-methyl-1H-pyrazol-3-yl)pyrimidine-4,6-diamine], the IC50 in experiment [1] (setting [3]) was ≤ 1000 nM; in experiment [2] (40 minutes at room temperature), ≤ 100 nM. Further, the GI50 in the experiment on HCT116 cells was ≤ 1000 nM.

For the compound `Cc1cc(Nc2cc(N3CCN(C)CC3)nc(-c3ccc4c(c3)OCO4)n2)n[nH]1` [Example 139, 2-(benzo[d][1,3]dioxol-5-yl)-N-(5-methyl-1H-pyrazol-3-yl)-6-(4-methylpiperazin-1-yl)pyrimidin-4-amine], the IC50 in experiment [1] (40 minutes at room temperature) and in experiment [2] (40 minutes at room temperature) was ≤ 100 nM each time. In the experiment with HCT116 cells, the 50% growth inhibitory concentration (GI50) was ≤ 1000 nM.

With `Cc1cc(Nc2cc(N3CCN(C)CC3)nc(-c3cccc(C#N)c3)n2)n[nH]1` [Example 163, 3-(4-(5-methyl-1H-pyrazol-3-ylamino)-6-(4-methylpiperazin-1-yl)pyrimidin-2-yl)benzonitrile], the IC50 in experiment [1] (40 minutes at room temperature) and in experiment [2] (40 minutes at room temperature) was ≤ 100 nM each time. In the experiment with HCT116 cells, the concentration for 50% growth inhibition (GI50) is ≤ 1000 nM.

As for `Cc1cc(Nc2cc(NCCN3CCN(C)CC3)nc(-c3ccccc3)n2)n[nH]1` [Compound 13, N^4-(5-methyl-1H-pyrazol-3-yl)-N^6-(2-(4-methylpiperazin-1-yl)ethyl)-2-phenylpyrimidine-4,6-diamine], the IC50 in experiment [1] (40 minutes at room temperature) is ≤ 100 nM; in experiment [2] (setting [3]), ≤ 1000 nM. For the same compound, in the experiment with HCT116 cells, the GI50 is ≤ 1000 nM.

In the case of `COCCN(C)c1cc(Nc2cc(C)[nH]n2)nc(-c2cc(F)ccc2F)n1` [Example 184, 2-(2,5-difluorophenyl)-N^4-(2-methoxyethyl)-N^4-methyl-N^6-(5-methyl-1H-pyrazol-3-yl)pyrimidine-4,6-diamine], the IC50 in experiment [1] (40 minutes at room temperature) is ≤ 100 nM; in experiment [2] (setting [3]) it was ≤ 1000 nM; in the experiment on HCT116 cells it was 1 to 10 µM.

As to `Cc1cc(Nc2cc(N(C)CCN(C)C)nc(-c3ccccc3)n2)n[nH]1` [Compound 9, N^4-(2-(dimethylamino)ethyl)-N^4-methyl-N^6-(5-methyl-1H-pyrazol-3-yl)-2-phenylpyrimidine-4,6-diamine], the IC50 in experiment [1] (40 minutes at room temperature) was ≤ 100 nM; in experiment [2] (setting [3]) it was ≤ 1000 nM. The GI50 in the experiment on HCT116 cells is ≤ 1000 nM.

As for `Cc1cc(Nc2cc(N3CCN(C)CC3)nc(-c3cccc([N+](=O)[O-])c3)n2)n[nH]1` [Example 162, N-(5-methyl-1H-pyrazol-3-yl)-6-(4-methylpiperazin-1-yl)-2-(3-nitrophenyl)pyrimidin-4-amine], the IC50 in experiment [1] (40 minutes at room temperature) and in experiment [2] (40 minutes at room temperature) was ≤ 100 nM in each case. For the same compound, in the experiment with HCT116 cells, the GI50 was ≤ 1000 nM.

In the case of `Cc1cc(Nc2cc(N3CCN(C)CC3)nc(-c3ccc(C(C)(C)C)cc3)n2)n[nH]1` [Compound 82, 2-(4-tert-butylphenyl)-N-(5-methyl-1H-pyrazol-3-yl)-6-(4-methylpiperazin-1-yl)pyrimidin-4-amine], the IC50 is ≤ 1000 nM in experiment [1] (setting [3]), ≤ 100 nM in experiment [2] (40 minutes at room temperature) and 1 to 10 µM in the experiment with HCT116 cells.

Consider `Cc1cc(Nc2cc(NC3CCOCC3)nc(-c3cccc(F)c3)n2)n[nH]1` [Compound 20, 2-(3-fluorophenyl)-N^4-(5-methyl-1H-pyrazol-3-yl)-N^6-(tetrahydro-2H-pyran-4-yl)pyrimidine-4,6-diamine], for which the figures for the IC50 (in experiment [1] (40 minutes at room temperature); in experiment [2] (40 minutes at room temperature); in the experiment with HCT116 cells) were ≤ 100 nM, ≤ 100 nM and 1 to 10 µM, respectively.

In the case of `COc1cccc(-c2nc(Nc3cc(C)[nH]n3)cc(N3CCN(C)CC3)n2)c1` [Compound 42, 2-(3-methoxyphenyl)-N-(5-methyl-1H-pyrazol-3-yl)-6-(4-methylpiperazin-1-yl)pyrimidin-4-amine], the IC50 in experiment [1] (40 minutes at room temperature) and in experiment [2] (40 minutes at room temperature) was ≤ 100 nM in each case. In addition, in the experiment on HCT116 cells, the GI50 is ≤ 1000 nM.

As to `Cc1cc(Nc2cc(N(C)CCN(C)C)nc(-c3cccc4ccoc34)n2)n[nH]1` [Example 205, 2-(benzofuran-7-yl)-N^4-(2-(dimethylamino)ethyl)-N^4-methyl-N^6-(5-methyl-1H-pyrazol-3-yl)pyrimidine-4,6-diamine], the IC50 in experiment [1] (setting [3]) is ≤ 1000 nM; in experiment [2] (setting [3]), ≤ 1000 nM; in the experiment on HCT116 cells, 1 to 10 µM.

As for `COc1ccc(F)c(-c2nc(Nc3cc(C)[nH]n3)cc(N3CCN(C)CC3)n2)c1` [Example 197, 2-(2-fluoro-5-methoxyphenyl)-N-(5-methyl-1H-pyrazol-3-yl)-6-(4-methylpiperazin-1-yl)pyrimidin-4-amine], the IC50 in experiment [1] (40 minutes at room temperature) and in experiment [2] (40 minutes at room temperature) was ≤ 100 nM in each case. The 50% growth inhibitory concentration (GI50) in the experiment with HCT116 cells is ≤ 1000 nM.

Turning to `Cc1cc(Nc2cc(N3CCN(C)CC3)nc(-c3cccc(F)c3)n2)n[nH]1` [Compound 33, 2-(3-fluorophenyl)-N-(5-methyl-1H-pyrazol-3-yl)-6-(4-methylpiperazin-1-yl)pyrimidin-4-amine], the IC50 in experiment [1] (40 minutes at room temperature) and in experiment [2] (40 minutes at room temperature) was ≤ 100 nM throughout. In addition, in the experiment with HCT116 cells, the GI50 is ≤ 1000 nM.

On to `CCc1ccccc1-c1nc(Nc2cc(C)[nH]n2)cc(N2CCN(C)CC2)n1` [Example 175, 2-(2-ethylphenyl)-N-(5-methyl-1H-pyrazol-3-yl)-6-(4-methylpiperazin-1-yl)pyrimidin-4-amine], for which the IC50 in experiment [1] (40 minutes at room temperature) is ≤ 100 nM; in experiment [2] (setting [3]), ≤ 1000 nM; with HCT116 cells, 1 to 10 µM.
